Read-outs that look alike come from different tables or passages of the source.
Experiments:
Format in all cases: cell-based
Helios [1] = molecular target: T1, Helios (Homo sapiens, UniProt Q96SW2+Q9UKS7); experiment: Helios Cellular Degradation Assay (Helios readout); design: Jurkat cells were plated at 80,000 cells/well; endogenous in cells; host or cells: Jurkat; conditions: Jurkat cells, 72 h incubation, Helios-PE antibody staining, flow cytometry; read-out: Helios Jurkat IC50
Protocol: (§1) Jurkat cells were plated at 80,000 cells/well in 40 μL RPMI+10% FBS in a 384 well cell culture plate prior to using acoustic dispensing technology for adding compound of interest. Cell cultures were incubated for 72 h at 37° C. and 5% C02. In order to facilitate analysis, cell cultures were spun down at 200 rpm for 5 min and the supernatant was discarded. After shaking the plate to dislodge the cell pellet, cells were resuspended in 50 μL of Fixation Buffer (eBioScience FoxP3 buffer set 00-5523-00) for 60 min at room temperature. After centrifuging and discarding the supernatant, cells were permeabilized with 50 μL of Permeabilization buffer (eBioScience FoxP3 buffer set 00-5523-00) for 10 min at room temperature. Following permeabilization, cells were spun down and the supernatant was replaced with 20 μL fluorescently labelled antibodies against Helios, Ikaros and Aiolos or corresponding Isotype controls in 1× Permeabilization buffer (Ikaros-Alexa488 [Biolegend, Cat #368408, 1:50], Helios-PE [CST, Cat #29360, 1:50], Aiolos-Alexa647 [Biolegend, Cat #371106Biolegend, 1:25]) and staining reactions were incubated for 1 h at room temperature; protected from light. […] Stained cells were resuspended in 25 μL of flow cytometry staining buffer (PBS+0.2% BSA) and analyzed using an Intellicyt Ique Plus flow cytometer.

Ikaros [2] = molecular target: T2, Ikaros (Homo sapiens, UniProt Q13422+Q96SW2); experiment: Helios Cellular Degradation Assay (Ikaros readout); design: Jurkat cells were plated at 80,000 cells/well; endogenous in cells; host or cells: Jurkat; conditions: Jurkat cells, 72 h incubation, Ikaros-Alexa488 antibody staining, flow cytometry; read-out: Ikaros Jurkat IC50
Protocol: as §1

Helios [3] = molecular target: T1, Helios; experiment: Helios Cellular Degradation Assay (Helios readout); design: endogenous in cells; host or cells: Jurkat; conditions: Jurkat cells, 72 h incubation, Helios-PE antibody staining, flow cytometry; read-out: Helios Jurkat IC50
Method in brief: (§2)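 Jurkat cells (80,000/well, RPMI+10% FBS) were treated with compound for 72 h at 37° C. After fixation and permeabilization they were stained with fluorescent antibodies to Helios, Ikaros and Aiolos. Intracellular protein levels were quantified by flow cytometry.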

Ikaros [4] = molecular target: T2, Ikaros; experiment: Helios Cellular Degradation Assay (Ikaros readout); design: endogenous in cells; host or cells: Jurkat; conditions: Jurkat cells, 72 h incubation, Ikaros-Alexa488 antibody staining, flow cytometry; read-out: Ikaros Jurkat IC50
Method in brief: as §2

T2 sequence (Q13422 whole entry): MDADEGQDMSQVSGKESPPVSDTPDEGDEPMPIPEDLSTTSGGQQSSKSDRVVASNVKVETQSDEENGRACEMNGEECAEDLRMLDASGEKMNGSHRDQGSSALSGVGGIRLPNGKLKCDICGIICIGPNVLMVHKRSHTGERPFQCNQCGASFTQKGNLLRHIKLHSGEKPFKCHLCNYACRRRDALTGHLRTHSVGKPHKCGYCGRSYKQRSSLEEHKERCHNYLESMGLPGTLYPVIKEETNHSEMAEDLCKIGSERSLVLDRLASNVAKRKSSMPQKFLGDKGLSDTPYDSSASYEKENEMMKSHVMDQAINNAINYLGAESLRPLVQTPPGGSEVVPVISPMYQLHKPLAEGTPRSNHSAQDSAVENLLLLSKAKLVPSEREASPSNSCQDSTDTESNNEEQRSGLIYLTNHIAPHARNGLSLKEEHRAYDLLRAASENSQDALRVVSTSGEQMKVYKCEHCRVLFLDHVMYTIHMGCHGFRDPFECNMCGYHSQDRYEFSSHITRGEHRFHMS
T2 sequence (Q96SW2 whole entry): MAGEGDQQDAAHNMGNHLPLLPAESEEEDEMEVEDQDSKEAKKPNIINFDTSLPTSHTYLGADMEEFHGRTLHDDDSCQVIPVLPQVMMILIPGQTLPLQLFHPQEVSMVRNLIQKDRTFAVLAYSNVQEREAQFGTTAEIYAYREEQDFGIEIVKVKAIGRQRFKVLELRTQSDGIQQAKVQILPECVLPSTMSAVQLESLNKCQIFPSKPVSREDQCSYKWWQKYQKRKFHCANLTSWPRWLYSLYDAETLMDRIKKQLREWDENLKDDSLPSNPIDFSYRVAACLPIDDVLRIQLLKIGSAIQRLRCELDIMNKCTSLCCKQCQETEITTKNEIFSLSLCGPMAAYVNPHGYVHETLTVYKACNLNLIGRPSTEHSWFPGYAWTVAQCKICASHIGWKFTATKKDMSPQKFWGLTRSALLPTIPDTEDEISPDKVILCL
T2 sequence (Q16531 whole entry partner): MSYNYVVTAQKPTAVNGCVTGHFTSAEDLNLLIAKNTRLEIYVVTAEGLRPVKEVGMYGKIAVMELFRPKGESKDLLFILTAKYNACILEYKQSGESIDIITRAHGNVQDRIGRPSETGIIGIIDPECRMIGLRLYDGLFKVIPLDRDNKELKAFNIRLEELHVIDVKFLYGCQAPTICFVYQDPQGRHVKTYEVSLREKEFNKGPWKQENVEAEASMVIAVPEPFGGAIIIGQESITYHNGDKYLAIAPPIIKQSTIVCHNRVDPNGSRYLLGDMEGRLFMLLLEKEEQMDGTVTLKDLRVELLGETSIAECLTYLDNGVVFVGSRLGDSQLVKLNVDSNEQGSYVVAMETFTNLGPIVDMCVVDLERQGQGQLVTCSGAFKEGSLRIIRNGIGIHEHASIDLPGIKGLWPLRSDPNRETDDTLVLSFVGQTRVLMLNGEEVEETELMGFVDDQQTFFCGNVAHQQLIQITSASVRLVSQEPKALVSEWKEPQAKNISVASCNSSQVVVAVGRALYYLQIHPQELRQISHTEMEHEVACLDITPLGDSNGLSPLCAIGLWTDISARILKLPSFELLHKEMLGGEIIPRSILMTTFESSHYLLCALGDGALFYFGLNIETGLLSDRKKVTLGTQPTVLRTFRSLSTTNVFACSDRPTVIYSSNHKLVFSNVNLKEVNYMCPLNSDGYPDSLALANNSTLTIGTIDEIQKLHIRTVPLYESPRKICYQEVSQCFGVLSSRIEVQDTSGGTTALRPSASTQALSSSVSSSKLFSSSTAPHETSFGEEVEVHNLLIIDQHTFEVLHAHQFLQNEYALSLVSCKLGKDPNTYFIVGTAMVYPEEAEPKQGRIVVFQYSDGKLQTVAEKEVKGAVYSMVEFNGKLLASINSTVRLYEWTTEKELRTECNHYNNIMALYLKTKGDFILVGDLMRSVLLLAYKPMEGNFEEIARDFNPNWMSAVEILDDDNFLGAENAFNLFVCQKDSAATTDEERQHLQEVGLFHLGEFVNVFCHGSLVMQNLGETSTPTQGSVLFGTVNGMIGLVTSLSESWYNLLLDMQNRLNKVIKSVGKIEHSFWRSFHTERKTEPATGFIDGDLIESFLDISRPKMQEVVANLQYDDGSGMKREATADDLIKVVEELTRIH
T1 sequence (Q9UKS7 whole entry): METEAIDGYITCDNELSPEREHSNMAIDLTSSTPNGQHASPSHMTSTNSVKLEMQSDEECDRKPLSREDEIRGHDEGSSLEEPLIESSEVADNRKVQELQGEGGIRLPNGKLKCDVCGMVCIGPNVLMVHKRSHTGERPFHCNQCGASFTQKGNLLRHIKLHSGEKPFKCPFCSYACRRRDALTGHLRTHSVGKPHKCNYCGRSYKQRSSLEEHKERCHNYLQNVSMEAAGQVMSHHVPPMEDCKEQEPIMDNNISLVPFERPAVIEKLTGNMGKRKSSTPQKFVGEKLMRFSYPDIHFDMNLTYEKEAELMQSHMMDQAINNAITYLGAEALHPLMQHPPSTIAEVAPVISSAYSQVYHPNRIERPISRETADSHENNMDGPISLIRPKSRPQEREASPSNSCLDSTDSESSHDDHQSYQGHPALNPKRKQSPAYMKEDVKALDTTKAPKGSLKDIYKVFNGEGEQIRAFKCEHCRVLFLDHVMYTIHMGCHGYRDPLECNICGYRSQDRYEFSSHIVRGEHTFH
T1 sequence (Q96SW2 whole entry): as the sequence (Q96SW2 whole entry) above
T1 sequence (Q16531 whole entry partner): as the sequence (Q16531 whole entry partner) above

In the case of O=C1CCC(N2Cc3cc(-c4cc(COCc5ccccc5)ccn4)ccc3C2=O)C(=O)N1 (centres unmarked) [Example 154], the DC50 (Helios [1]) is reported as 3.98 µM and the DC50 (Ikaros [2]) is reported as at least 10 µM.
Work on Nc1cc(Cl)cc(-c2ccc3c(c2)CN(C2CCC(=O)NC2=O)C3=O)n1 (centres unmarked) [Example 165, 3-(5-(6-amino-4-chloropyridin-2-yl)-1-oxoisoindolin-2-yl)piperidine-2,6-dione] yielded a DC50 (Helios [3]) of 0.03 µM and a DC50 (Ikaros [4]) of at least 20 µM.
For N#Cc1ccc(-c2ccc3c(c2)CN(C2CCC(=O)NC2=O)C3=O)nc1N (centres unmarked) [Example 166, 2-amino-6-(2-(2,6-dioxopiperidin-3-yl)-1-oxoisoindolin-5-yl)nicotinonitrile], the DC50 (Helios [3]) was 0.02 µM and the DC50 (Ikaros [4]) was at least 20 µM.
With CC(=O)Nc1nc(-c2ccc3c(c2)CN(C2CCC(=O)NC2=O)C3=O)cc(C)c1C (centres unmarked) [Example 167, N-(6-(2-(2,6-dioxopiperidin-3-yl)-1-oxoisoindolin-5-yl)-3,4-dimethylpyridin-2-yl) acetamide] the DC50 (Helios [3]) was 0.05 µM and the DC50 (Ikaros [4]) was over 10 µM.
For CCCc1cc(N)nc(-c2ccc3c(c2)CN(C2CCC(=O)NC2=O)C3=O)c1C#N (centres unmarked) [Example 173, 6-amino-2-(2-(2,6-dioxopiperidin-3-yl)-1-oxoisoindolin-5-yl)-4-propylnicotinonitrile], the DC50 (Helios [3]) was 0.12 µM and the DC50 (Ikaros [4]) was at least 10 µM.
With CC(C)c1cc(-c2ccc3c(c2)CN(C2CCC(=O)NC2=O)C3=O)nc(N)c1C#N (centres unmarked) [Example 178, 2-amino-6-(2-(2,6-dioxopiperidin-3-yl)-1-oxoisoindolin-5-yl)-4-isopropylnicotinonitrile] the DC50 (Helios [3]) was 0.07 µM and the DC50 (Ikaros [4]) was at least 10 µM.
For CC(C)c1cc(N)nc(-c2ccc3c(c2)CN(C2CCC(=O)NC2=O)C3=O)c1C#N (centres unmarked) [Example 179, 6-amino-2-(2-(2,6-dioxopiperidin-3-yl)-1-oxoisoindolin-5-yl)-4-isopropylnicotinonitrile], the DC50 (Helios [3]) was at least 10 µM and the DC50 (Ikaros [4]) was at least 10 µM.
Molecule Cc1cc(C#N)c(-c2ccc3c(c2)CN(C2CCC(=O)NC2=O)C3=O)nc1N (centres unmarked) [Example 180, 6-amino-2-(2-(2,6-dioxopiperidin-3-yl)-1-oxoisoindolin-5-yl)-5-methylnicotinonitrile] has a DC50 (Helios [3]) of 0.02 µM and a DC50 (Ikaros [4]) of at least 10 µM.
For COc1cc(C#N)c(N)nc1-c1ccc2c(c1)CN(C1CCC(=O)NC1=O)C2=O (centres unmarked) [Example 181, 2-amino-6-(2-(2,6-dioxopiperidin-3-yl)-1-oxoisoindolin-5-yl)-5-methoxynicotinonitrile], the DC50 (Helios [3]) was 0.14 µM and the DC50 (Ikaros [4]) was at least 10 µM.
N#Cc1cc(C2CC2)c(N)nc1-c1ccc2c(c1)CN(C1CCC(=O)NC1=O)C2=O (centres unmarked) [Example 182, 6-amino-5-cyclopropyl-2-(2-(2,6-dioxopiperidin-3-yl)-1-oxoisoindolin-5-yl) nicotinonitrile] gave a DC50 (Helios [3]) of 0.07 µM and a DC50 (Ikaros [4]) of at least 10 µM.
N#Cc1cc(C2CC2)c(-c2ccc3c(c2)CN(C2CCC(=O)NC2=O)C3=O)nc1N (centres unmarked) [Example 183, 2-amino-5-cyclopropyl-6-(2-(2,6-dioxopiperidin-3-yl)-1-oxoisoindolin-5-yl) nicotinonitrile] showed a DC50 (Helios [3]) of 0.05 µM and a DC50 (Ikaros [4]) of at least 10 µM.
Nc1cc(N2CCN(Cc3ccccc3)CC2)cc(-c2ccc3c(c2)CN(C2CCC(=O)NC2=O)C3=O)n1 (centres unmarked) [Example 184, 3-(5-(6-amino-4-(4-benzylpiperazin-1-yl)pyridin-2-yl)-1-oxoisoindolin-2-yl) piperidine-2,6-dione] gave a DC50 (Helios [3]) of at least 10 µM and a DC50 (Ikaros [4]) of at least 10 µM.
For CS(=O)(=O)N1CCN(c2cc(N)nc(-c3ccc4c(c3)CN(C3CCC(=O)NC3=O)C4=O)c2)CC1 (centres unmarked) [Example 185, 3-(5-(6-amino-4-(4-(methylsulfonyl)piperazin-1-yl)pyridin-2-yl)-1-oxoisoindolin-2-yl) piperidine-2,6-dione], the DC50 (Helios [3]) was 6.4 µM and the DC50 (Ikaros [4]) was at least 10 µM.
CC(=O)N1CCN(c2cc(N)nc(-c3ccc4c(c3)CN(C3CCC(=O)NC3=O)C4=O)c2)CC1 (centres unmarked) [Example 186, 3-(5-(4-(4-acetylpiperazin-1-yl)-6-aminopyridin-2-yl)-1-oxoisoindolin-2-yl)piperidine-2,6-dione] showed a DC50 (Helios [3]) of at least 10 µM and a DC50 (Ikaros [4]) of at least 10 µM.
CNc1cc(C)cc(-c2ccc3c(c2)CN(C2CCC(=O)NC2=O)C3=O)n1 (centres unmarked) [Example 187, 3-(5-(4-Methyl-6-(methylamino)pyridin-2-yl)-1-oxoisoindolin-2-yl)piperidine-2,6-dione] gave a DC50 (Helios [3]) of 0.01 µM and a DC50 (Ikaros [4]) of at least 10 µM.
CCNc1cc(C)cc(-c2ccc3c(c2)CN(C2CCC(=O)NC2=O)C3=O)n1 (centres unmarked) [Example 188, 3-(5-(6-(Ethylamino)-4-methylpyridin-2-yl)-1-oxoisoindolin-2-yl)piperidine-2,6-dione] was tested, and the DC50 (Helios [3]) was 0.04 µM and the DC50 (Ikaros [4]) was at least 10 µM.
